Laboratory results: US20040081682A1, “Transdermal system (tds) that contain inhibitors of phosphodiesterase lV” (priority 2000, published 2004)

Test: Pharmacokinetic study of humans (transdermal TDS E vs. intravenous infusion, serum RIA)
Settings: human, in vivo
Description: Pharmacokinetic Study of Humans
The above-described formulation E was tested on twelve healthy males at the age of 20 to 42 years with normal body weight, whereby for 72 hours in each case, three transdermal formulations of 10 cm^2 each with 5 mg of (R)-(−)-5-(4-methoxyphenyl-3-propoxy)-5-methyl-2-oxazolidinone were simultaneously applied on the lower back area. After 72 hours, the transdermal formulation was removed and within one week of washing-out time, the concentration of the active ingredient in the serum was determined per RIA. The measured serum levels of the active ingredient produced an average transdermal substance flow of 0.49±0.7 μg/cm^2/h, at maximum serum levels of 0.88 ng/ml in the time interval of 29±10 hours.
Based on the pronounced plateau phase, which was achieved after the administration of the TDS, at the time of the reduction of TDS after three days, it was still possible to measure mesopram concentrations in the range of 65±18% of the maximum levels. […] The AUC values as well as other pharmacokinetic parameters are found in Table 3. In a comparison test with intravenous administration of a total of 0.2 mg of (R)-(−)-5-(4-methoxyphenyl-3-propoxy)-5-methyl-2-oxazolidinone within one hour, a multiple of higher serum levels was measured that was […]. One hour after the infusion was completed, the mean serum levels dropped to 1.15±0.44 ng·ml·l. Later on, the serum levels dropped off four hours after completion of the infusion to achieve a level of 0.39±0.17 ng·ml·l, after 8 hours 0.17±0.09 ng·ml·l, and after 24 hours 0.08±0.08 ng·ml·l. The essential pharmacokinetic parameters after i.v. administration of mesopram are depicted in Tab. 3. The comparison test with infusion was performed on the same test subjects as the transdermal administration. […]

Cl (clearance): 5.1 ± 1.8
f (absolute bioavailability): 100%
ιη (half-life): 2.5 ± 0.9 h
Substance: (R)-(−)-5-(4-methoxyphenyl-3-propoxy)-5-methyl-2-oxazolidinone [mesopram]
